According to PubChem BioAssay (NCI):
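Each compound was tested at five concentrations against cells in 96-well plates for 48 hours. Definition used: TGI = concentration required for complete inhibition of growth.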

Columns and labels:
Assay in all cases: growth of human tumour cells (NCI), 48 h
UO-31 renal = tested on: UO-31 renal
SF-268 CNS = tested on: SF-268 CNS
KM12 colon = tested on: KM12 colon
NCI-H23 lung = tested on: NCI-H23 lung
HCT-116 colon = tested on: HCT-116 colon
UACC-257 melanoma = tested on: UACC-257 melanoma
HCT-15 colon = tested on: HCT-15 colon
SN12C renal = tested on: SN12C renal
U251 CNS = tested on: U251 CNS
SF-539 CNS = tested on: SF-539 CNS
UACC-62 melanoma = tested on: UACC-62 melanoma
HOP-92 NSCLC = tested on: HOP-92 NSCLC
SK-MEL-28 melanoma = tested on: SK-MEL-28 melanoma
CAKI-1 renal = tested on: CAKI-1 renal
COLO 205 colon = tested on: COLO 205 colon
TK-10 renal = tested on: TK-10 renal
HT29 colon = tested on: HT29 colon
MALME-3M melanoma = tested on: MALME-3M melanoma
HL-60(TB) leukemia = tested on: HL-60(TB) leukemia
SK-MEL-5 melanoma = tested on: SK-MEL-5 melanoma
XF 498 CNS = tested on: XF 498 CNS
RPMI-8226 leukemia = tested on: RPMI-8226 leukemia
SK-OV-3 ovarian = tested on: SK-OV-3 ovarian
K-562 leukemia = tested on: K-562 leukemia
LXFL 529 NSCLC = tested on: LXFL 529 NSCLC
OVCAR-8 ovarian = tested on: OVCAR-8 ovarian
OVCAR-4 ovarian = tested on: OVCAR-4 ovarian
HOP-62 NSCLC = tested on: HOP-62 NSCLC
NCI-H226 lung = tested on: NCI-H226 lung
SK-MEL-2 melanoma = tested on: SK-MEL-2 melanoma
IGROV1 ovarian = tested on: IGROV1 ovarian
KM20L2 colon = tested on: KM20L2 colon
LOX IMVI melanoma = tested on: LOX IMVI melanoma
ACHN renal = tested on: ACHN renal
CCRF-CEM leukemia = tested on: CCRF-CEM leukemia
NCI-H460 lung = tested on: NCI-H460 lung
HCC-2998 colon = tested on: HCC-2998 colon
786-0 renal = tested on: 786-0 renal
RXF-631 renal = tested on: RXF-631 renal
DMS 273 small cell lung = tested on: DMS 273 small cell lung
A549 NSCLC = tested on: A549 NSCLC
M19-MEL melanoma = tested on: M19-MEL melanoma
OVCAR-5 ovarian = tested on: OVCAR-5 ovarian
MOLT-4 leukemia = tested on: MOLT-4 leukemia
DLD-1 colon = tested on: DLD-1 colon
NCI-H522 lung = tested on: NCI-H522 lung
OVCAR-3 ovarian = tested on: OVCAR-3 ovarian
A498 renal = tested on: A498 renal
SNB-19 CNS = tested on: SNB-19 CNS
SNB-75 CNS = tested on: SNB-75 CNS
SW-620 colon = tested on: SW-620 colon
M14 melanoma = tested on: M14 melanoma
EKVX NSCLC = tested on: EKVX NSCLC
DMS 114 small cell lung = tested on: DMS 114 small cell lung
SF-295 CNS = tested on: SF-295 CNS

## Cc1cc(N(CCC#N)CCC#N)ccc1/C=C\C(=O)Nc1ccccc1
UO-31 renal
  TGI: > 100 µM
SF-268 CNS
  TGI: > 100 µM
KM12 colon
  TGI: > 100 µM
NCI-H23 lung
  TGI: > 100 µM
HCT-116 colon
  TGI: > 100 µM
UACC-257 melanoma
  TGI: > 100 µM
HCT-15 colon
  TGI: > 100 µM
SN12C renal
  TGI: > 100 µM
U251 CNS
  TGI: > 100 µM
SF-539 CNS
  TGI: > 100 µM
UACC-62 melanoma
  TGI: > 100 µM
HOP-92 NSCLC
  TGI: > 100 µM
SK-MEL-28 melanoma
  TGI: > 100 µM
CAKI-1 renal
  TGI: > 100 µM
COLO 205 colon
  TGI: > 100 µM
TK-10 renal
  TGI: > 100 µM
HT29 colon
  TGI: > 100 µM
MALME-3M melanoma
  TGI: > 100 µM
HL-60(TB) leukemia
  TGI: > 100 µM
SK-MEL-5 melanoma
  TGI: > 100 µM
XF 498 CNS
  TGI: > 100 µM
RPMI-8226 leukemia
  TGI: > 100 µM
SK-OV-3 ovarian
  TGI: > 100 µM
K-562 leukemia
  TGI: > 100 µM
LXFL 529 NSCLC
  TGI: > 100 µM
OVCAR-8 ovarian
  TGI: > 100 µM
OVCAR-4 ovarian
  TGI: > 100 µM
HOP-62 NSCLC
  TGI: > 100 µM
NCI-H226 lung
  TGI: > 100 µM
SK-MEL-2 melanoma
  TGI: > 100 µM
IGROV1 ovarian
  TGI: > 100 µM
KM20L2 colon
  TGI: > 100 µM
LOX IMVI melanoma
  TGI: > 100 µM
ACHN renal
  TGI: > 100 µM
CCRF-CEM leukemia
  TGI: > 100 µM
NCI-H460 lung
  TGI: > 100 µM
HCC-2998 colon
  TGI: 80.5 µM
786-0 renal
  TGI: > 100 µM
RXF-631 renal
  TGI: > 100 µM
DMS 273 small cell lung
  TGI: > 100 µM
A549 NSCLC
  TGI: > 100 µM
M19-MEL melanoma
  TGI: > 100 µM
OVCAR-5 ovarian
  TGI: > 100 µM
MOLT-4 leukemia
  TGI: > 100 µM
DLD-1 colon
  TGI: > 100 µM
NCI-H522 lung
  TGI: > 100 µM
OVCAR-3 ovarian
  TGI: > 100 µM
A498 renal
  TGI: > 100 µM
SNB-19 CNS
  TGI: > 100 µM
SNB-75 CNS
  TGI: > 100 µM
SW-620 colon
  TGI: > 100 µM
M14 melanoma
  TGI: > 100 µM
EKVX NSCLC
  TGI: > 100 µM
DMS 114 small cell lung
  TGI: > 100 µM
SF-295 CNS
  TGI: > 100 µM
